Measurements published in US20230131966A1, “FUNGICIDAL AMIDES” (FMC Corporation, priority 2020, published 2023).

Experiments:
Format in all cases: in vivo
Phakopsora pachyrhizi = experiment: Test A: Asian soybean rust control on soybean seedlings
Zymoseptoria tritici = experiment: Test C: wheat leaf blotch control on wheat seedlings
Botrytis cinerea = experiment: Test E: tomato Botrytis control on tomato seedlings
[1] = system: Erysiphe graminis f. sp. tritici; experiment: Test G: wheat powdery mildew control on wheat seedlings
Phytophthora infestans = experiment: whole plant or invertebrate; details: tomato seedlings
Plasmopara viticola = experiment: Test D: grape downy mildew control on grape seedlings
[2] = system: Puccinia recondita f. sp. tritici; experiment: Test B: wheat leaf rust control on wheat seedlings
[3] = 250 ppm, soybean seedlings, 100 = 100% disease control, 0 = no control
[4] = 250 ppm, wheat seedlings, 100 = 100% disease control, 0 = no control
[5] = 250 ppm, 100 = 100% disease control, 0 = no control
[6] = 150 ppm, wheat seedlings, 100 = 100% disease control, 0 = no control
[7] = 150 ppm, 100 = 100% disease control, 0 = no control
[8] = rate 250 ppm, relative to the controls

| Structure (SMILES) | Test A disease control rating (Phakopsora pachyrhizi; [3]) [%] | Test C disease control rating (Zymoseptoria tritici; [4]) [%] | Test E disease control rating (Botrytis cinerea; [5]) [%] | Test G disease control rating [1, 5] [%] | Test F disease control rating (Phytophthora infestans; [5]) [%] | Test D disease control rating (Plasmopara viticola; [5]) [%] | Test B disease control rating [2, 4] [%] | other results |
| --- | --- | --- | --- | --- | --- | --- | --- | --- |
| COc1ccnc(C(=O)N[C@@H](C)C(=O)OC(C(C)C)C2CCCCC2)c1OC(C)=O (mixture of isomers) [Compound 62, N-[[3-(acetyloxy)-4-methoxy-2-pyridinyl]carbonyl]-L-alanine 1-cyclohexyl-2-methylpropyl ester] | – | – | – | – | – | – | – | pest or weed control at 50 ppm (Phakopsora pachyrhizi; Phakopsora pachyrhizi, 50 ppm, soybean seedlings, 100 = 100% disease control, 0 = no control, read-out: Test A disease control rating): 100%; pest or weed control at 50 ppm (Zymoseptoria tritici; Zymoseptoria tritici, 50 ppm, wheat seedlings, 100 = 100% disease control, 0 = no control, read-out: Test C disease control rating): 14%; pest or weed control at 50 ppm (Botrytis cinerea; Botrytis cinerea, 50 ppm, 100 = 100% disease control, 0 = no control, read-out: Test E disease control rating): 0%; pest or weed control at 50 ppm ([1]; Blumeria graminis, 50 ppm, 100 = 100% disease control, 0 = no control, read-out: Test G disease control rating): 0%; pest or weed control at 50 ppm (Phytophthora infestans; Phytophthora infestans, in Solanum lycopersicum, read-out: Test F disease control rating, 50 ppm, 100 = 100% disease control, 0 = no control): 0%; pest or weed control at 50 ppm (Plasmopara viticola; Plasmopara viticola, 50 ppm, 100 = 100% disease control, 0 = no control, read-out: Test D disease control rating): 74%; pest or weed control at 50 ppm ([2]; Puccinia recondita, 50 ppm, wheat seedlings, 100 = 100% disease control, 0 = no control, read-out: Test B disease control rating): 93% |
| COc1ccnc(C(=O)N[C@@H](C)C(=O)OC(C)C2CCCCC2)c1OC(C)=O (mixture of isomers) [Compound 29, N-[[3-(acetyloxy)-4-methoxy-2-pyridinyl]carbonyl]-L-alanine 1-cyclohexylethyl ester] | – | – | – | – | – | – | – | pest or weed control at 250 ppm (Phakopsora pachyrhizi; Phakopsora pachyrhizi, 250 ppm, soybean seedlings, 100 = 100% disease control, 0 = no control, read-out: Test A disease control rating): 100%; pest or weed control at 250 ppm (Zymoseptoria tritici; Zymoseptoria tritici, 250 ppm, wheat seedlings, 100 = 100% disease control, 0 = no control, read-out: Test C disease control rating): 95%; pest or weed control at 250 ppm (Botrytis cinerea; Botrytis cinerea, 250 ppm, 100 = 100% disease control, 0 = no control, read-out: Test E disease control rating): 0%; pest or weed control at 250 ppm ([1]; Blumeria graminis, 250 ppm, 100 = 100% disease control, 0 = no control, read-out: Test G disease control rating): 0%; pest or weed control at 250 ppm (Phytophthora infestans; Phytophthora infestans, in Solanum lycopersicum, read-out: Test F disease control rating, 250 ppm, 100 = 100% disease control, 0 = no control): 33%; pest or weed control at 250 ppm (Plasmopara viticola; Plasmopara viticola, 250 ppm, 100 = 100% disease control, 0 = no control, read-out: Test D disease control rating): 17%; pest or weed control at 250 ppm ([2]; Puccinia recondita, 250 ppm, wheat seedlings, 100 = 100% disease control, 0 = no control, read-out: Test B disease control rating): 99% |
| COc1ccnc(C(=O)N[C@@H](C)C(=O)OC(C)c2ccc(C3CCCCC3)cc2)c1OC(=O)c1ccccc1 (some centres unmarked) [Compound 136] | 60 | 0 | 0 | 0 | 0 | 4 | 90 | – |
| CCOC(=O)c1cnn(-c2ccc(C(C)OC(=O)C(C)NC(=O)c3nccc(OC)c3OC(C)=O)cc2)c1 (mixture of isomers) [Compound 47] | 99 | 51 | 0 | 0 | 0 | 20 | 68 | – |
| COc1ccnc(C(=O)NC(C)C(=O)OC(C)c2ccccc2C(F)(F)F)c1O (mixture of isomers) [Compound 17] | – | – | – | – | – | – | – | Test A disease control rating (Phakopsora pachyrhizi; 150 ppm, soybean seedlings, 100 = 100% disease control, 0 = no control): 66%; Test C disease control rating (Zymoseptoria tritici; [6]): 92%; Test E disease control rating (Botrytis cinerea; [7]): 0%; Test G disease control rating [1, 7]: 0%; Test F disease control rating (Phytophthora infestans; [7]): 0%; Test D disease control rating (Plasmopara viticola; [7]): 23%; Test B disease control rating [2, 6]: 41% |
| CCC(OC(=O)[C@H](C)NC(=O)c1nccc(OC)c1OC(C)=O)C1CCCCC1 (single isomer, unassigned) [Compound 168] | 100 | 99 | 0 | 0 | 0 | 31 | 100 | – |
| COc1ccnc(C(=O)N[C@@H](C)C(=O)OC(C)c2ccc(CC3CCCCC3)cc2)c1OC(C)=O (single isomer, unassigned) [Compound 129] | 100 | 91 | 0 | 0 | 0 | 32 | 100 | – |
| COc1ccnc(C(=O)N[C@@H](C)C(=O)OC(c2ccc(C3CCCCC3)cc2)C(F)(F)F)c1O (some centres unmarked) [Compound 120] | 99 | 95 | 0 | 0 | 0 | 24 | 94 | – |
| COc1ccnc(C(=O)NC(C)C(=O)OC(C)c2ccc(F)cc2Oc2ccc(F)cc2)c1O (mixture of isomers) [Compound 82] | 95 | 79 | 0 | 0 | 0 | 82 | 55 | – |
| COc1ccnc(C(=O)NC(C)C(=O)OC(C)C2Cc3ccccc3O2)c1O (mixture of isomers) [Compound 187] | – | – | – | – | – | – | – | Test A disease control rating (100 = 100% disease control, 0 = no disease control) (Phakopsora pachyrhizi; [8]): 97%; Test C disease control rating (100 = 100% disease control, 0 = no disease control) (Zymoseptoria tritici; [8]): 96%; Test E disease control rating (100 = 100% disease control, 0 = no disease control) (Botrytis cinerea; [8]): 0%; Test G disease control rating (100 = 100% disease control, 0 = no disease control) [1, 8]: 0%; Test F disease control rating (100 = 100% disease control, 0 = no disease control) (Phytophthora infestans; [8]): 0%; Test D disease control rating (100 = 100% disease control, 0 = no disease control) (Plasmopara viticola; [8]): 6%; Test B disease control rating (100 = 100% disease control, 0 = no disease control) [2, 8]: 100% |
| COc1ccnc(C(=O)NC(C)C(=O)OC(C)C2CCCc3ccccc32)c1OC(C)=O (mixture of isomers) [Compound 185] | 100 | 100 | 0 | 0 | 0 | 61 | 100 | – |
